In patent US10183943B2, “Heterocyclic compounds and their use in preventing or treating bacterial infections” (MUTABILIS, priority 2015, dated 2019):

Key:
[1] = biological target: T1, TEM-1 (Escherichia coli, UniProt P62593); experiment: β-lactamase inhibitory activity, determination of IC50 (nitrocefin hydrolysis); format: biochemical
T1 construct: made in house; host or cells: E. coli

[2] = biological target: T2, SHV-1 (Klebsiella pneumoniae, UniProt P0AD64); experiment: as above; format: biochemical
T2 construct: made in house; host or cells: E. coli

[3] = biological target: T3, CTX-M-15 (Escherichia coli, UniProt Q9EXV5); experiment: as above; format: biochemical
T3 construct: made in house; host or cells: E. coli

[4] = biological target: T4, KPC-2 (Klebsiella pneumoniae, UniProt Q9F663); experiment: as above; format: biochemical
T4 construct: made in house; host or cells: E. coli

[5] = biological target: T5, OXA-1 (Escherichia coli, UniProt P13661); experiment: as above; format: biochemical
T5 construct: made in house; host or cells: E. coli

[6] = biological target: T6, OXA-11 (Pseudomonas aeruginosa, UniProt Q06778); experiment: as above; format: biochemical
T6 construct: made in house; host or cells: E. coli

[7] = biological target: T7, OXA-15 (Pseudomonas aeruginosa, UniProt Q51574); experiment: biochemical
T7 construct: made in house; host or cells: E. coli

[8] = biological target: T8, OXA-48 (Klebsiella pneumoniae, UniProt Q6XEC0); experiment: β-lactamase inhibitory activity, determination of IC50 (nitrocefin hydrolysis); format: biochemical
T8 construct: made in house; host or cells: E. coli

[9] = tested on: E. cloacae 260508 (TEM-1, CTX-M-15); experiment: MIC of compounds alone, broth microdilution; format: cell-based; conditions: Enterobacter cloacae, read-out: MIC compounds of the invention alone
Summary of the method: (§1)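 Cpd alone in DMSO; CAMHB, log-phase inoculum 5×10^5 cfu/mL; 35° C, 16-20 h, ambient air; MIC = lowest conc. with no visible growth (CLSI M7-A7).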

[10] = tested on: E. cloacae P99 (AmpC); experiment: MIC of compounds alone, broth microdilution; format: cell-based; conditions: Enterobacter cloacae, read-out: MIC compounds of the invention alone
Summary of the method: as §1

[11] = tested on: E. cloacae UFR51 (SHV-12, IMP-8); experiment: MIC of compounds alone, broth microdilution; format: cell-based; conditions: Enterobacter cloacae, read-out: MIC compounds of the invention alone
Summary of the method: as §1

[12] = tested on: E. cloacae UFR70 (TEM-1, CTX-M-15, CMY-2, OXA-1, Porin loss); experiment: MIC of compounds alone, broth microdilution; format: cell-based; conditions: Enterobacter cloacae, read-out: MIC compounds of the invention alone
Summary of the method: as §1

[13] = tested on: E. cloacae UFR85 (TEM-1, CTX-M-15, AmpC); experiment: MIC of compounds alone, broth microdilution; format: cell-based; conditions: Enterobacter cloacae, read-out: MIC compounds of the invention alone
Summary of the method: as §1

[14] = tested on: E. coli 131119 (TEM-1, OXA-48); experiment: MIC of compounds alone, broth microdilution; format: cell-based; conditions: Escherichia coli, read-out: MIC compounds of the invention alone
Summary of the method: as §1

[15] = tested on: E. coli 190317 (TEM-1, SHV-12, CTX-M-15, OXA-1); experiment: MIC of compounds alone, broth microdilution; format: cell-based; conditions: Escherichia coli, read-out: MIC compounds of the invention alone
Summary of the method: as §1

[16] = tested on: E. coli RGN238 (OXA-1); experiment: MIC of compounds alone, broth microdilution; format: cell-based; conditions: Escherichia coli, read-out: MIC compounds of the invention alone
Summary of the method: as §1

[17] = tested on: E. coli UFR18 (CTX-M-15, OXA-204); experiment: MIC of compounds alone, broth microdilution; format: cell-based; conditions: Escherichia coli, read-out: MIC compounds of the invention alone
Summary of the method: as §1

[18] = tested on: E. coli UFR32 (TEM-1, VEB-1, OXA-10); experiment: MIC of compounds alone, broth microdilution; format: cell-based; conditions: Escherichia coli, read-out: MIC compounds of the invention alone
Summary of the method: as §1

[19] = tested on: E. coli UFR41 (TEM-1, CTX-M-15, CMY-2, OXA-1, NDM-4); experiment: MIC of compounds alone, broth microdilution; format: cell-based; conditions: Escherichia coli, read-out: MIC compounds of the invention alone
Summary of the method: as §1

[20] = tested on: E. coli UFR61O (TEM-1, KPC-2); experiment: MIC of compounds alone, broth microdilution; format: cell-based; conditions: Escherichia coli, read-out: MIC compounds of the invention alone
Summary of the method: as §1

[21] = tested on: E. coli UFR74 (SHV-1, DHA-1); experiment: MIC of compounds alone, broth microdilution; format: cell-based; conditions: Escherichia coli, read-out: MIC compounds of the invention alone
Summary of the method: as §1

[22] = tested on: K. oxytoca UFR21 (TEM-1, CTX-M-15, OXA-48); experiment: MIC of compounds alone, broth microdilution; format: cell-based; conditions: Klebsiella oxytoca, read-out: MIC compounds of the invention alone
Summary of the method: as §1

[23] = tested on: K. pneumoniae 160143 (TEM-1, SHV-1, CTX-M-15, KPC-2, OXA-1); experiment: MIC of compounds alone, broth microdilution; format: cell-based; conditions: Klebsiella pneumoniae, read-out: MIC compounds of the invention alone
Summary of the method: as §1

[24] = tested on: K. pneumoniae 200047 (TEM-1, SHV-32, CTX-M-15, OXA-1); experiment: MIC of compounds alone, broth microdilution; format: cell-based; conditions: Klebsiella pneumoniae, read-out: MIC compounds of the invention alone
Summary of the method: as §1

[25] = tested on: K. pneumoniae 6299 (TEM-1, SHV-11, OXA-163); experiment: MIC of compounds alone, broth microdilution; format: cell-based; conditions: Klebsiella pneumoniae, read-out: MIC compounds of the invention alone
Summary of the method: as §1

[26] = tested on: K. pneumoniae BAA-1898 (TEM-1, SHV-11, SHV-12, KPC-2); experiment: MIC of compounds alone, broth microdilution; format: cell-based; conditions: Klebsiella pneumoniae, BAA1898, read-out: MIC compounds of the invention alone
Summary of the method: as §1

[27] = tested on: K. pneumoniae UFR24 (TEM-1, SHV-2, SHV-11, OXA-1, OXA-48, OXA-47); experiment: MIC of compounds alone, broth microdilution; format: cell-based; conditions: Klebsiella pneumoniae, read-out: MIC compounds of the invention alone
Summary of the method: as §1

[28] = tested on: K. pneumoniae UFR39 (CTX-M-15, NDM-1); experiment: MIC of compounds alone, broth microdilution; format: cell-based; conditions: Klebsiella pneumoniae, read-out: MIC compounds of the invention alone
Summary of the method: as §1

[29] = tested on: K. pneumoniae UFR68 (TEM-1, SHV-11, CTX-M-15, KPC-3); experiment: MIC of compounds alone, broth microdilution; format: cell-based; conditions: Klebsiella pneumoniae, read-out: MIC compounds of the invention alone
Summary of the method: as §1

[30] = tested on: K. pneumoniae UFR77 (CMY-2); experiment: MIC of compounds alone, broth microdilution; format: cell-based; conditions: Klebsiella pneumoniae, read-out: MIC compounds of the invention alone
Summary of the method: as §1

[31] = tested on: P. aeruginosa CIP107051 (TEM-24); experiment: MIC of compounds alone, broth microdilution; format: cell-based; conditions: Pseudomonas aeruginosa, CIP107051, read-out: MIC compounds of the invention alone
Summary of the method: as §1

[32] = biological target: AmpC (P99) (Enterobacter cloacae, UniProt P05364); experiment: β-lactamase inhibitory activity, determination of IC50 (nitrocefin hydrolysis)
[33] = biological target: AmpC P. aeruginosa (Pseudomonas aeruginosa, UniProt P24735); experiment: as above
AmpC P. aeruginosa, sequence (P24735 27-397): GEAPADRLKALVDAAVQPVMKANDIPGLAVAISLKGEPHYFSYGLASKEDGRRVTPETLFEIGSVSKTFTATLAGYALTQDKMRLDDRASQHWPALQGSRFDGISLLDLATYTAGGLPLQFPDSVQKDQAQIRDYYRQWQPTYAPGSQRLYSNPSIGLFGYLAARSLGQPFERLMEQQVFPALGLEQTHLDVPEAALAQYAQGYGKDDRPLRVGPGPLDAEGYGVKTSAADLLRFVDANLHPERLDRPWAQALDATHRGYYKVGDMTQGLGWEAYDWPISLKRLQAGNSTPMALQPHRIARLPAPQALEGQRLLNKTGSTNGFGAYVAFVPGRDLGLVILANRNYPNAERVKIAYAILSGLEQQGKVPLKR

T7 sequence (Q51574 22-275): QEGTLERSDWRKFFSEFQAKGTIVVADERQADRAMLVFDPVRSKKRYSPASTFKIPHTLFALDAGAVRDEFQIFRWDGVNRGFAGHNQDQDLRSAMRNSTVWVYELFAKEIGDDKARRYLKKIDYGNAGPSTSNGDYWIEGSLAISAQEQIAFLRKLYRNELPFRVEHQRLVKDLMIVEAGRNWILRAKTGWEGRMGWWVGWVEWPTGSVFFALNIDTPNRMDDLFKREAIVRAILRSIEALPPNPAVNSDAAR
T2 sequence (P0AD64 22-286): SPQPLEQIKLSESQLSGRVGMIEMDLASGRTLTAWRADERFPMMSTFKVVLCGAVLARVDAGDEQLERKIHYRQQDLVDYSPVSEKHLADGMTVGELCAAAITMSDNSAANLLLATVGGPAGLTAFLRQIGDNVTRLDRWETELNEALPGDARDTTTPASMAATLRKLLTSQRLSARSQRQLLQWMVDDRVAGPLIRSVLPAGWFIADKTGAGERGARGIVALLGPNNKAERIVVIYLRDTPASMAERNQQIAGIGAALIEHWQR
T3 sequence (Q9EXV5 entry or part of it): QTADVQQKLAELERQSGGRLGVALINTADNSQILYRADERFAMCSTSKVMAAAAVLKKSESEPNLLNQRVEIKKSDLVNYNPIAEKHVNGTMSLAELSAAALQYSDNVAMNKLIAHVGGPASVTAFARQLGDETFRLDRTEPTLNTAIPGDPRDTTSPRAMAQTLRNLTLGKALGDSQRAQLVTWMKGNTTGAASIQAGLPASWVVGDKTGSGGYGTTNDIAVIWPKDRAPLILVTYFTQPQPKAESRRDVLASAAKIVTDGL
T8 sequence (Q6XEC0 23-265 limits assumed): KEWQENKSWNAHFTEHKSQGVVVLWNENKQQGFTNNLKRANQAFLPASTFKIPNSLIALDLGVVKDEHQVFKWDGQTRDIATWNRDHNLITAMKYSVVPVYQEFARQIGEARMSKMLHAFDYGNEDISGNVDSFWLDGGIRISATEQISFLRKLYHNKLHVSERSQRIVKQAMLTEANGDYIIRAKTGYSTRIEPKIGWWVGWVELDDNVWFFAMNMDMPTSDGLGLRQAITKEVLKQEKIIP
T4 sequence (Q9F663 25-293 limits assumed): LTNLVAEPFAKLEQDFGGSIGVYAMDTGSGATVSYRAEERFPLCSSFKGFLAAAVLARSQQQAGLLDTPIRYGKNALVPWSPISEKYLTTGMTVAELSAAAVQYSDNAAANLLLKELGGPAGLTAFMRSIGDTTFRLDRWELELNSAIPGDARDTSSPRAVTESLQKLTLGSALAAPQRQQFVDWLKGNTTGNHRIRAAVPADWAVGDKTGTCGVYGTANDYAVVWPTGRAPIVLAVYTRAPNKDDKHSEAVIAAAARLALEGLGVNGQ
T6 sequence (Q06778 21-266): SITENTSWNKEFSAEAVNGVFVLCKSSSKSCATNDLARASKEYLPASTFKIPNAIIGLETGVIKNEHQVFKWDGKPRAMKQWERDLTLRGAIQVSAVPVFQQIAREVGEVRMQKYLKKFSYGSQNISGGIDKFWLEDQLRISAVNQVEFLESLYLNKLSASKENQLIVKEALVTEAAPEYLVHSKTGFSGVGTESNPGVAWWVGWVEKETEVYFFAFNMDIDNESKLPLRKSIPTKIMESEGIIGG
T5 sequence (P13661 26-276): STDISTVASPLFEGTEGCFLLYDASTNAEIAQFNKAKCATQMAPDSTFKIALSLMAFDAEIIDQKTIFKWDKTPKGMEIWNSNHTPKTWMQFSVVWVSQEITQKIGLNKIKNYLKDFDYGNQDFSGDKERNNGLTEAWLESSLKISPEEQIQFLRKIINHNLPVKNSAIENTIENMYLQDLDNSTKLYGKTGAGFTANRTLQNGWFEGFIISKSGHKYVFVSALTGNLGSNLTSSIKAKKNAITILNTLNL
T1 sequence (P62593 24-286 limits assumed): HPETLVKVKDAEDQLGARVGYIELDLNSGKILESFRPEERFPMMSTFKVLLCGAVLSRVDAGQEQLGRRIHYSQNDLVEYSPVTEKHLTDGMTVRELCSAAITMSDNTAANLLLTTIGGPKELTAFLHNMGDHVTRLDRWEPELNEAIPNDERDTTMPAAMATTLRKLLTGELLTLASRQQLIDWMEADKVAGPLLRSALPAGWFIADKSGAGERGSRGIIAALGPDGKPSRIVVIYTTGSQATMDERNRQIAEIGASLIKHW
AmpC (P99), sequence (P05364 21-381): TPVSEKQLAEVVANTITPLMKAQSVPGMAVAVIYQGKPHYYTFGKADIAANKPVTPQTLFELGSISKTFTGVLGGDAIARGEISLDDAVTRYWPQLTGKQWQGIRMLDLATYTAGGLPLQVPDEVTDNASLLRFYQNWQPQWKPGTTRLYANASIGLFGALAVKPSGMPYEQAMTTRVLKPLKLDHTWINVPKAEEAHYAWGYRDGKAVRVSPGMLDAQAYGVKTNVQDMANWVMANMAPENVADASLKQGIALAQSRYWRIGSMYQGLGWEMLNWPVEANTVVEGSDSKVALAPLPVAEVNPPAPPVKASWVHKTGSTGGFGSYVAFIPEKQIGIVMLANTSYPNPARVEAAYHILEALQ

O=C1N2CC(c3ncco3)=C[C@H](C2)N1OC(F)(F)C(=O)O (racemic) [Example 37]
IC50 [1]: 0.0016 µM | IC50 [2]: 0.013 µM | IC50 [3]: 0.00057 µM | IC50 [4]: 0.053 µM | IC50 [5]: 7.4 µM | IC50 [6]: 0.21 µM | IC50 [7]: 0.059 µM | IC50 [8]: 0.0018 µM | MIC [9]: 4 mg/L | MIC [10]: 8 mg/L | MIC [11]: 4 mg/L | MIC [12]: 2 mg/L | MIC [13]: 2 mg/L | MIC [14]: 2 mg/L | MIC [15]: 2 mg/L | MIC [16]: 2 mg/L | MIC [17]: 2 mg/L | MIC [18]: 2 mg/L | MIC [19]: 16 mg/L | MIC [20]: 8 mg/L | MIC [21]: 4 mg/L | MIC [22]: 4 mg/L | MIC [23]: 4 mg/L | MIC [24]: 2 mg/L | MIC [25]: 8 mg/L | MIC [26]: 4 mg/L | MIC [27]: 4 mg/L | MIC [28]: 8 mg/L | MIC [29]: 4 mg/L | MIC [30]: 4 mg/L | MIC [31]: > 128 mg/L | IC50 [32]: 0.63 µM | IC50 [33]: 0.24 µM
